Data from patent US20060025477A1, “Analogs of isovaleramide, a pharmaceutical composition including the same, and a method of treating central nervous system conditions or diseases” (priority 2004, published 2006).

Legend:
[1] = system: Frings audiogenic seizure-susceptible mouse; test: Frings audiogenic seizure assay (protection against sound-induced tonic hindlimb extension); type: in vivo; settings: Mus musculus, po, Table 5; read-out: ED50 Oral Administration
Method: The anticonvulsant activity of compound S ((S)-(+)-2,2-dimethylcyclopropane-carboxamide) was tested using the Frings audiogenic seizure-susceptible mouse. […] Compound S, which is a solution at 300 mg/kg and a suspension at 600 mg/kg, was administered to the mice at the doses indicated in Tables 1-3. Compound S was obtained from Sigma-Aldrich Chemical Co. (Aldrich catalog number: 43,463-9).
At the time of testing, individual mice were placed into a round Plexiglas chamber and exposed to a sound stimulus of 110 decibels, 11 kHz, for 20 seconds. Mice not displaying tonic hindlimb extensions upon exposure to the sound stimulus were considered protected. In addition, the seizure score for each mouse was recorded as: (1) running for less than 10 seconds; (2) running for greater than 10 seconds; (3) clonic activity of limbs and/or vibrissae; (4) forelimb extension/hindlimb flexion; and (5) hindlimb extension. The average seizure score was calculated for each group of mice used in the dose-response study.
The anticonvulsant activity of compounds I, W, X, and AA was tested using the Frings audiogenic seizure-susceptible mouse model as described in Example 23. […] The therapeutic index relates to separation between therapeutic efficacy and CNS toxicity as measured by motor impairment in the rotarod performance test.

male Swiss-Webster mice [2] = test: Rotarod impairment test before MES testing; type: in vivo, mouse; settings: 300 mg/kg p.o.
Method: (§1) Test compounds (Compound S, Compound W, the S-enantiomer of Compound AA, the R-enantiomer of Compound AA, Compound HH, Compound JJ, and Compound MM) were dissolved in saline containing 0.5% methylcellulose. To determine time to peak effect, 300 mg/kg of each of the test compounds was suspended in 0.5% methylcellulose in saline and administered orally to a group of 20 mice. For comparative purposes, isovaleramide was also tested. At various times (0.25, 0.5, 1, 2, and 4 hours) after p.o. administration, individual mice were placed on the rotarod and tested for their ability to maintain balance on a rotating (6 rpm) 2.5-cm diameter knurled rod for 60 seconds. Mice that fell three times in this 60-second trial were considered impaired.

male Swiss-Webster mice [3] = test: Maximal electroshock (MES)-induced tonic extension seizure test; type: in vivo, mouse; settings: 300 mg/kg p.o.
Method: In the MES test, a substance is administered orally (p.o.) and is tested for efficacy against maximal electroshock (MES)-induced tonic extension seizures. Adult male Swiss-Webster mice (each 20-25 g of body weight) were used. The mice were housed in Association for the Assessment and Accreditation of Laboratory Animal Care-approved facilities under a constant 12-hour light/dark cycle with a constant temperature of 21° C.-23° C. and a relative humidity of 30% to 50%. All animals were permitted free access to standard laboratory chow (Prolab RMH 3000; PMI Nutrition International, LLC, Brentwood, Mo.) and water, except when removed from their home cages for testing. All mice were handled in a manner consistent with the recommendations in the National Research Council Publication Guide for the Care and Use of Laboratory Animals.
as §1
Following rotarod testing, the mice were tested in the maximal electroshock (MES)-induced tonic extension seizures test. For this test, a drop of electrolyte solution (0.5% butacaine sulfate in 0.9% saline) was placed on the eyes of each mouse prior to placement of corneal electrodes. The mice were restrained by gripping the loose skin on their dorsal surface and saline-coated corneal electrodes were held lightly against the two corneas. Each mouse received an electrical stimulation (50 mAmp, 50 Hz current, 0.2 sec) delivered through a silver-coated corneal electrode using an electroshock machine as originally described by Woodbury and Davenport (Arch Int. Pharmacodyn. Ther., 92:97-104, 1952). […] A tonic seizure was defined as a hindlimb extension in excess of 90 degrees from the plane of the body. Results were treated in a quantal manner. […] ED50's (the effective dose at which 50% of the mice were protected) were determined for Compounds W and HH by administering various doses (30, 100, 300 mg/kg) at the previously determined time to peak effect, as shown in Table 11.

Frings mice = test: Rotarod test of motor impairment (toxicity) in the Frings study; type: in vivo; settings: Frings, mouse, in vivo, po
Method: At each dose, the mice were also tested on a rotarod for testing of motor impairment (toxicity). Testing for motor impairment on the rotarod involved placing a mouse for a three-minute trial period on a one-inch diameter rod rotating at six revolutions per minute. If the mouse fell off of the rotating rod three times within the three-minute time period, the dose was considered a toxic response.
The therapeutic index relates to separation between therapeutic efficacy and CNS toxicity as measured by motor impairment in the rotarod performance test.

SMILES	ED50 [1]	# I/# T (impaired/tested) (male Swiss-Webster mice [2]; 0.25 hours)	# I/# T (impaired/tested) (male Swiss-Webster mice [2]; 0.5 hours)	# I/# T (impaired/tested) (male Swiss-Webster mice [2]; 1 hour)	# I/# T (impaired/tested) (male Swiss-Webster mice [2]; 2 hours)	# P/# T (protected/tested) (male Swiss-Webster mice [3]; 0.25 hours)	# P/# T (protected/tested) (male Swiss-Webster mice [3]; 0.5 hours)	# P/# T (protected/tested) (male Swiss-Webster mice [3]; 1 hour)	# P/# T (protected/tested) (male Swiss-Webster mice [3]; 2 hours)	# P/# T (protected/tested) (male Swiss-Webster mice [3]; 4 hours)	Therapeutic Index (Frings mice)	# I/# T (impaired/tested) (male Swiss-Webster mice [2]; 4 hours)
CC(C)C(C)C(N)=O (racemic) [AA (cis and trans mixture)]	140 mg/kg	–	–	–	–	–	–	–	–	–	–	–
CC(C)[C@H](C)C(N)=O [AA (R- enantiomer)]	84.2 mg/kg	3/4	3/4	0/4	3/4	0/4	0/4	0/4	0/4	0/4	>4-fold	–
CC(C)[C@@H](C)C(N)=O [AA (S- enantiomer)]	84.1 mg/kg	0/4	1/4	0/4	0/4	3/4	0/4	1/4	1/4	0/4	>4-fold	0/4
CC(C)CC(=O)NCC(N)=O [Compound I]	< 1000 mg/kg	–	–	–	–	–	–	–	–	–	–	–
CC(C)C(C)(C)C(N)=O [Compound JJ]	–	1/4	2/4	1/4	0/4	1/4	0/4	0/4	0/4	0/4	–	0/4
